Measured values published in patent publication US12139520B2 (priority 2020, dated 2024).
Numbered stars: 1 amine (or outer) side, 2 acyl side, 3 side chain; on linkers, the order of the positions; unused ones are H or OH. Bridge positions count the residues as written; N and C are the ends. Square brackets hold non-standard residues; d marks the D form. Side chains are listed from the residue outwards. Peptide text beside a SMILES is read from it. * marks the point of attachment. C20 diacid = O=C(O)CCCCCCCCCCCCCCCCCCC(=O)*; γGlu = O=C(O)[C@H](CCC(=O)[*:2])N[*:1]; Hyp = O=C(O)[C@@H]1C[C@@H](O)CN1; AEEA = NCCOCCOCC(=O)O

Assays:
hAM1 receptor = hAM1 receptor (Homo sapiens, UniProt O60895+Q16602); experiment: cAMP assay for in vitro receptor activation, hAM1-R; type: cell-based; details: cAMP assay, hAM1 receptor; read-out: hAM1R EC50
Chain of hAM1 receptor (Q16602 23-461): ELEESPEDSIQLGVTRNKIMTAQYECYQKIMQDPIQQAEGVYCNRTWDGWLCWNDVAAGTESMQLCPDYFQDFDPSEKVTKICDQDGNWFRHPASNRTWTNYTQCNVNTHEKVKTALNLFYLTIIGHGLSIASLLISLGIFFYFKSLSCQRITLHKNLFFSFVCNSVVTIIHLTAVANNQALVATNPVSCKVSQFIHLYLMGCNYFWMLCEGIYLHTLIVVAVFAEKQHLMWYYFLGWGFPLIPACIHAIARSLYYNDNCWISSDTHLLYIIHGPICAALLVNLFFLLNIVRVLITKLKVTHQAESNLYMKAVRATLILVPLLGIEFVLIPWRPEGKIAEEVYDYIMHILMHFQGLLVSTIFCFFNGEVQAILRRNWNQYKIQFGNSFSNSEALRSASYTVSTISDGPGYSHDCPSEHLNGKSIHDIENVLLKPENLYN
Chain of hAM1 receptor (O60895 43-175 partner): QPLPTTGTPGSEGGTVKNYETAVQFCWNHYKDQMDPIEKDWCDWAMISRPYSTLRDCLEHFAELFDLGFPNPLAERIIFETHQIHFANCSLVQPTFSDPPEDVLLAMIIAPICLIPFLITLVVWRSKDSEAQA
Method in brief: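 Receptor activation, read as cAMP, was assessed in thawed cells of a monoclonal hAM1-overexpressing stable line, plated at 8000 cells/well in DPBS supplemented with 0.05% casein and 0.5 mM IBMX.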

hAMY3 receptor = molecular target: T1, hAMY3 receptor (Homo sapiens, UniProt O60896+P30988); experiment: cAMP assay for in vitro receptor activation, hAMY3-R; type: cell-based; details: cAMP assay, hAMY3 receptor; read-out: hAMY3R EC50
T1 sequence (P30988 25-474): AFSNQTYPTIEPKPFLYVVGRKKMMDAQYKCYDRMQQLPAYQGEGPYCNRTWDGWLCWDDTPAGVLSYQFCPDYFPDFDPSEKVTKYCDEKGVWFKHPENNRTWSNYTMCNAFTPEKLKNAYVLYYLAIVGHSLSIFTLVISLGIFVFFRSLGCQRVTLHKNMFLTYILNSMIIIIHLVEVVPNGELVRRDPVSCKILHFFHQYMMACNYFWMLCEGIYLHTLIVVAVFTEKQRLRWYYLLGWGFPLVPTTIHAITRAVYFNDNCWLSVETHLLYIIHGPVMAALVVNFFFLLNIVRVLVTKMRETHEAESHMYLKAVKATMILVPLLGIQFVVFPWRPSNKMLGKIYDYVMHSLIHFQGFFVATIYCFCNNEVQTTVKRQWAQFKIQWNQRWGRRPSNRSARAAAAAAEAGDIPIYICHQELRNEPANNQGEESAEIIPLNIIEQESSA
T1 sequence (O60896 24-148 partner): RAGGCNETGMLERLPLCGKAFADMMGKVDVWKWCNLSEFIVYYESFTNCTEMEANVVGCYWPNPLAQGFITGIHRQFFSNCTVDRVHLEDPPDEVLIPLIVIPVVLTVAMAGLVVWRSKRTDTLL
Method in brief: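 Monoclonal cell line stably overexpressing human AMY3 receptor, 2000 cells/well in DPBS with 0.05% casein and 0.5 mM IBMX. Stimulated 30 min at room temperature with graded compound doses, human amylin as positive control. cAMP accumulation read by TR-FRET after one hour.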

Compound | EC50 (hAM1 receptor) | EC50 (hAMY3 receptor)
CC[C@H](C)[C@H](NC(=O)[C@H](C)NC(=O)CNC(=O)[C@H](Cc1ccccc1)NC(=O)[C@H](CC(N)=O)NC(=O)[C@H](CC(N)=O)NC(=O)[C@H](CO)NC(=O)[C@H](CO)NC(=O)[C@H](Cc1c[nH]cn1)NC(=O)[C@@H](NC(=O)[C@H](CC(C)C)NC(=O)[C@H](Cc1ccccc1)NC(=O)[C@H](CC(N)=O)NC(=O)[C@H](C)NC(=O)[C@H](CC(C)C)NC(=O)[C@H](CCCNC(=N)N)NC(=O)[C@H](CCC(N)=O)NC(=O)[C@@H](NC(=O)[C@H](C)NC(=O)[C@@H]1CSSC[C@H](NC(=O)[C@@H](N)CCCCN)C(=O)N[C@@H](CC(N)=O)C(=O)N[C@@H]([C@@H](C)O)C(=O)N[C@@H](C)C(=O)N[C@@H]([C@@H](C)O)C(=O)N1)[C@@H](C)O)C(C)C)C(=O)N[C@@H](CC(C)C)C(=O)N1CCC[C@H]1C(=O)N[C@@H](CO)C(=O)N[C@H](C(=O)N[C@@H](CCCCN)C(=O)N[C@H](C(=O)NCC(=O)N1CCC[C@H]1C(=O)N[C@@H](CC(N)=O)C(=O)NCC(=O)N[C@@H](Cc1ccc(O)cc1)C(N)=O)[C@@H](C)CC)[C@@H](C)O [compound 162] (H-KCNTATCATQRLANFLVHSSNNFGAILPSTKIGPNGY-NH2; disulfide 2-7; N-terminus assumed) | > 5000 nM | 0.051 nM
CC[C@H](C)[C@H](NC(=O)[C@H](CCC(N)=O)NC(=O)[C@H](Cc1c[nH]cn1)NC(=O)[C@H](C)NC(=O)[C@H](CC(C)C)NC(=O)[C@H](CCCNC(=N)N)NC(=O)[C@H](CCC(N)=O)NC(=O)[C@@H](NC(=O)[C@@H](NC(=O)[C@@H]1CSSC[C@H](NC(=O)[C@H](CCCCN)NC(=O)CC[C@H](NC(=O)CCCCCCCCCCCCCCCCCCC(=O)O)C(=O)O)C(=O)N[C@@H](CC(N)=O)C(=O)N[C@@H]([C@@H](C)O)C(=O)N[C@@H](C)C(=O)N[C@@H]([C@@H](C)O)C(=O)N1)[C@@H](C)O)C(C)C)C(=O)N[C@@H](C)C(=O)N[C@@H](CCC(N)=O)C(=O)N[C@@H](Cc1ccc(O)cc1)C(=O)N[C@H](C(=O)N[C@@H](CC(=O)O)C(=O)N[C@@H](CCCCN)C(=O)N[C@@H](CC(=O)O)C(=O)N[C@@H](CCCCN)C(=O)N[C@@H](CC(=O)O)C(=O)N[C@@H](CC(N)=O)C(=O)N[C@H](C(=O)N[C@@H](C)C(=O)N1CCC[C@H]1C(=O)N1CCC[C@H]1C(=O)N[C@H](C(=O)N[C@@H](CC(N)=O)C(=O)N[C@H](C(=O)NCC(=O)N[C@@H](CO)C(=O)N[C@@H](CC(N)=O)C(=O)NCC(=O)N1C[C@H](O)C[C@H]1C(N)=O)C(C)C)[C@@H](C)O)C(C)C)[C@@H](C)O [compound 71] ({C20 diacid-γGlu}-KCNTATCTVQRLAHQIAQYTDKDKDNVAPPTNVGSNG[Hyp]-NH2; disulfide 2-7) | > 5000 nM | 0.013 nM
CC[C@H](C)[C@H](NC(=O)[C@H](CCC(N)=O)NC(=O)[C@H](CCC(=O)O)NC(=O)[C@H](C)NC(=O)[C@H](CC(C)C)NC(=O)[C@H](CCCNC(=N)N)NC(=O)[C@H](CCC(N)=O)NC(=O)[C@@H](NC(=O)[C@@H](NC(=O)[C@@H]1CSSC[C@H](NC(=O)[C@@H](N)CCCCN)C(=O)N[C@@H](CC(N)=O)C(=O)N[C@@H]([C@@H](C)O)C(=O)N[C@@H](C)C(=O)N[C@@H]([C@@H](C)O)C(=O)N1)[C@@H](C)O)C(C)C)C(=O)N[C@@H](Cc1ccc(O)cc1)C(=O)N[C@@H](CCC(N)=O)C(=O)N[C@@H](Cc1ccccc1)C(=O)N[C@@H](CCCCNC(=O)COCCOCCNC(=O)COCCOCCNC(=O)CC[C@H](NC(=O)CCCCCCCCCCCCCCCCCCC(=O)O)C(=O)O)C(=O)N[C@@H](CC(=O)O)C(=O)N[C@@H](CCCCN)C(=O)N[C@@H](CC(=O)O)C(=O)N[C@@H](CCCCN)C(=O)N[C@@H](CC(=O)O)C(=O)N[C@@H](CC(N)=O)C(=O)N[C@H](C(=O)N[C@@H](C)C(=O)N1CCC[C@H]1C(=O)N1CCC[C@H]1C(=O)N[C@H](C(=O)N[C@@H](CC(N)=O)C(=O)N[C@H](C(=O)NCC(=O)N[C@@H](CO)C(=O)N[C@@H](CC(N)=O)C(=O)NCC(=O)N1C[C@H](O)C[C@H]1C(N)=O)C(C)C)[C@@H](C)O)C(C)C [compound 89] (H-KCNTATCTVQRLAEQIYQFK([AEEA-AEEA-γGlu-C20 diacid])DKDKDNVAPPTNVGSNG[Hyp]-NH2; disulfide 2-7; N-terminus assumed) | > 5000 nM | 0.015 nM

The next lines start with the values.

EC50 (hAM1 receptor) | EC50 (hAMY3 receptor) | Compound
> 5000 nM | 0.012 nM | CC[C@H](C)[C@H](NC(=O)[C@H](CCC(N)=O)NC(=O)[C@H](CCC(=O)O)NC(=O)[C@H](C)NC(=O)[C@H](CC(C)C)NC(=O)[C@H](CCCNC(=N)N)NC(=O)[C@H](CCC(N)=O)NC(=O)[C@@H](NC(=O)[C@@H](NC(=O)[C@@H]1CSSC[C@H](NC(=O)[C@@H](N)CCCCN)C(=O)N[C@@H](CC(N)=O)C(=O)N[C@@H]([C@@H](C)O)C(=O)N[C@@H](C)C(=O)N[C@@H]([C@@H](C)O)C(=O)N1)[C@@H](C)O)C(C)C)C(=O)N[C@@H](Cc1ccc(O)cc1)C(=O)N[C@@H](CCC(N)=O)C(=O)N[C@@H](Cc1ccccc1)C(=O)N[C@H](C(=O)N[C@@H](CC(=O)O)C(=O)N[C@@H](CCCCN)C(=O)N[C@@H](CC(=O)O)C(=O)N[C@@H](CCCCN)C(=O)N[C@@H](CC(=O)O)C(=O)N[C@@H](CC(N)=O)C(=O)N[C@H](C(=O)N[C@@H](CO)C(=O)N1CCC[C@H]1C(=O)N1CCC[C@H]1C(=O)N[C@H](C(=O)N[C@@H](CC(N)=O)C(=O)N[C@H](C(=O)NCC(=O)N[C@@H](CO)C(=O)N[C@@H](CC(N)=O)C(=O)NCC(=O)N1C[C@H](O)C[C@H]1C(N)=O)C(C)C)[C@@H](C)O)C(C)C)[C@@H](C)O [compound 66] (H-KCNTATCTVQRLAEQIYQFTDKDKDNVSPPTNVGSNG[Hyp]-NH2; disulfide 2-7)
> 5000 nM | 0.011 nM | CC[C@H](C)[C@H](NC(=O)[C@H](CCC(N)=O)NC(=O)[C@H](Cc1c[nH]cn1)NC(=O)[C@H](C)NC(=O)[C@H](CC(C)C)NC(=O)[C@H](CCCNC(=N)N)NC(=O)[C@H](CCC(N)=O)NC(=O)[C@@H](NC(=O)[C@@H](NC(=O)[C@@H]1CSSC[C@H](NC(=O)[C@H](CCCCN)NC(=O)CC[C@H](NC(=O)CCCCCCCCCCCCCCCCCCC(=O)O)C(=O)O)C(=O)N[C@@H](CC(N)=O)C(=O)N[C@@H]([C@@H](C)O)C(=O)N[C@@H](CO)C(=O)N[C@@H]([C@@H](C)O)C(=O)N1)[C@@H](C)O)C(C)C)C(=O)N[C@@H](Cc1ccc(O)cc1)C(=O)N[C@@H](CCC(N)=O)C(=O)N[C@@H](Cc1ccccc1)C(=O)N[C@H](C(=O)N[C@@H](CC(=O)O)C(=O)N[C@@H](CCCCN)C(=O)N[C@@H](CC(=O)O)C(=O)N[C@@H](CCCCN)C(=O)N[C@@H](CC(=O)O)C(=O)N[C@@H](CC(N)=O)C(=O)N[C@H](C(=O)N[C@@H](C)C(=O)N1CCC[C@H]1C(=O)N1CCC[C@H]1C(=O)N[C@H](C(=O)N[C@@H](CC(N)=O)C(=O)N[C@H](C(=O)NCC(=O)N[C@@H](CO)C(=O)N[C@@H](CC(N)=O)C(=O)NCC(=O)N1C[C@H](O)C[C@H]1C(N)=O)C(C)C)[C@@H](C)O)C(C)C)[C@@H](C)O [compound 50] ({C20 diacid-γGlu}-KCNTSTCTVQRLAHQIYQFTDKDKDNVAPPTNVGSNG[Hyp]-NH2; disulfide 2-7)
> 5000 nM | 0.013 nM | CC[C@H](C)[C@H](NC(=O)[C@H](CCC(N)=O)NC(=O)[C@H](CCC(=O)O)NC(=O)[C@H](C)NC(=O)[C@H](CC(C)C)NC(=O)[C@H](CCCNC(=N)N)NC(=O)[C@H](CCC(N)=O)NC(=O)[C@@H](NC(=O)[C@@H](NC(=O)[C@@H]1CSSC[C@H](NC(=O)[C@H](CCCCN)NC(=O)CC[C@H](NC(=O)CCCCCCCCCCCCCCCCCCC(=O)O)C(=O)O)C(=O)N[C@@H](CC(N)=O)C(=O)N[C@@H]([C@@H](C)O)C(=O)N[C@@H](C)C(=O)N[C@@H]([C@@H](C)O)C(=O)N1)[C@@H](C)O)C(C)C)C(=O)N[C@@H](Cc1ccc(O)cc1)C(=O)N[C@@H](CCC(N)=O)C(=O)N[C@@H](Cc1ccccc1)C(=O)N[C@H](C(=O)N[C@@H](CC(=O)O)C(=O)N[C@@H](CCCCN)C(=O)N[C@@H](CC(=O)O)C(=O)N[C@@H](CCCCN)C(=O)N[C@@H](CC(=O)O)C(=O)N[C@@H](CC(N)=O)C(=O)N[C@H](C(=O)N[C@@H](C)C(=O)N1CCC[C@H]1C(=O)N1CCC[C@H]1C(=O)N[C@H](C(=O)N[C@@H](CCC(N)=O)C(=O)N[C@H](C(=O)NCC(=O)N[C@@H](CO)C(=O)N[C@@H](CC(N)=O)C(=O)NCC(=O)N1C[C@H](O)C[C@H]1C(N)=O)C(C)C)[C@@H](C)O)C(C)C)[C@@H](C)O [compound 73] ({C20 diacid-γGlu}-KCNTATCTVQRLAEQIYQFTDKDKDNVAPPTQVGSNG[Hyp]-NH2; disulfide 2-7)
